Source: US5624923A, “Tricyclic diazepine vasopressin antagonists and oxytocin antagonists” (priority 1995, dated 1997)

Tests used:
Vasopressin V1 = Vasopressin V1 Antagonist Activity in Conscious Rats (vasopressin vasopressor response); format: in vivo, rat
In short: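 Conscious rats are restrained supine, and under local 2% procaine a PE 10/20 cannula is passed through the ventral caudal tail artery into the lower abdominal aorta. The caudal vein is cannulated for intravenous dosing. Blood pressure is recorded with a Statham P23Db transducer, and vasopressin injections are repeated after compound dosing. Percent antagonism is calculated against the pre-drug vasopressor response taken as 100%.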

Vasopressin V2 = Vasopressin V2 Antagonist Activity in Conscious Hydrated Rats; format: in vivo, rat; conditions: 10 mg/kg orally, AVP 0.4 μg/kg i.p.
In short: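 Four-hour urine output, osmolality and electrolytes (Na+, K+, Cl−) recorded in water-loaded rats (30 mL/kg deionized water orally) given AVP i.p. at 0.4 μg/kg. Test compounds were given orally at 0.1–100 mg/kg 1 h before AVP; 2–4 rats per compound.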

[1] = molecular target: T1, Rat Kidney Medullary V2 Receptors (Rattus norvegicus, UniProt Q00788); experiment: Binding Assay to Rat Kidney Medullary V2 Receptors; conditions: rat kidney medulla membranes; read-out: V2 IC50
T1 construct: Medullary tissues from rat kidneys are dissected out; from tissue; host or cells: rat kidney medulla membranes
T1 sequence (Q00788 whole entry): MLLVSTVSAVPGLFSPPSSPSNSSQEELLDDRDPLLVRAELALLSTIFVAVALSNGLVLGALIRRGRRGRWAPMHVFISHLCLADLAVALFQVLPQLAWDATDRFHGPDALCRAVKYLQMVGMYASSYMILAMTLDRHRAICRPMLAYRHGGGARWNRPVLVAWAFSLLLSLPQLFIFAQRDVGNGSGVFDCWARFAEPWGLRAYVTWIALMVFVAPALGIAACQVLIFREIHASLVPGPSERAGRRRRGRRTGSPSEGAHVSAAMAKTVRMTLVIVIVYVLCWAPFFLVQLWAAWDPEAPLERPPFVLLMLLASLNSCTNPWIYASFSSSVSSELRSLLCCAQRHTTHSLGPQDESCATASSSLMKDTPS
In short: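 IC50 derived from competition curves; bound tritium counted by liquid scintillation after filtration. Rat medullary kidney membranes (Tris-HCl pH 7.4, BSA, PMSF) were incubated 120 min to equilibrium with radioligand and test compound (added in 50% DMSO). Nonspecific binding: 1.0 μM unlabeled ligand.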

Row | SMILES | Max. % Inhibition (Vasopressin V1; 10 mg/kg i.v.) | Time (of max. % inhibition) (Vasopressin V1; 10 mg/kg i.v.) | Osmolality (Vasopressin V2) | Urine Volume (Vasopressin V2) | Max. % Inhibition (Vasopressin V1; 30 mg/kg p.o.) | Time (of max. % inhibition) (Vasopressin V1; 30 mg/kg p.o.) | IC50 [1] | Max. % Inhibition (Vasopressin V1; 30 mg/kg i.v.) | Time (of max. % inhibition) (Vasopressin V1; 30 mg/kg i.v.)
1 | O=C(Nc1ccc(C(=O)N2Cc3cccn3Cc3sccc32)cc1)c1ccc(Cl)cc1Cl [Example 274, N-(4-(5H-pyrrolo[1,2-a]thieno-[3,2-e][1,4]diazepin-4(10H)-ylcarbonyl)phenyl]-2,4-dichloro-benzamide] | 59% | 300 min | 1177 mOsm/kg | 3 ml/4 hrs |  |  |  |  | 
2 | COc1cc(C(=O)N2Cc3cccn3Cc3ccccc32)ccc1NC(=O)c1ccccc1C [Example 477, N-[4-(5H-pyrrolo[2,1-c][1,4]benzodiazepin-10(11H)-ylcarbonyl)-2-methoxy-phenyl]-2-methylbenzamide] | 88% | 180 min | 701 mOsm/kg | 5.3 ml/4 hrs | 82% | 30 min |  |  | 
3 | COc1cc(C(=O)N2Cc3cccn3Cc3ccccc32)ccc1NC(=O)c1ccc(Cl)cc1Cl [Example 478, N-[4-(5H-pyrrolo[2,1-c][1,4]benzodiazepin-10(11H)-ylcarbonyl)-2-methoxy-phenyl]-2,4-dichlorobenzamide] | 76% | 120 min | 1399 mOsm/kg | 3 ml/4 hrs |  |  |  |  | 
4 | COc1cc(C(=O)N2Cc3cccn3Cc3ccccc32)ccc1NC(=O)c1cccc(F)c1C [Example 479, N-[4-(5H-pyrrolo[2,1-c][1,4]benzodiazepin-10(11H)-ylcarbonyl)-2-methoxy-phenyl]-3-fluoro-2-methylbenzamide] | 83% | 60 min | 1042 mOsm/kg | 6 ml/4 hrs | 69% | 90 min | 8 nM |  | 
5 | O=C(Nc1ccc(C(=O)N2Cc3cccn3Cc3ccccc32)cc1)c1cc([N+](=O)[O-])ccc1Cl [Example 480, N-[4-(5H-pyrrolo[2,1-c][1,4]benzodiazepin-10(11H)-ylcarbonyl)phenyl]-2-chloro-5-nitrobenzamide] | 29% | 300 min | 827 mOsm/kg | 8.8 ml/4 hrs |  |  |  |  | 
6 | Cc1cccc(C(=O)Nc2ccc(C(=O)N3Cc4cccn4Cc4ccccc43)c(Cl)c2)c1C [Example 525, N-[4-(5H-pyrrolo[2,1-c][1,4]benzodiazepin-10(11H)-ylcarbonyl]-3-chlorophenyl]-2,3-dimethylbenzamide] |  |  | 557 mOsm/kg | 13 ml/4 hrs |  |  |  | 70% | 60 min
7 | O=C(Nc1ccc(C(=O)N2Cc3cccn3Cc3ccccc32)c(Cl)c1)c1ccc(F)cc1Cl [Example 527, N-[4-(5H-pyrrolo[2,1-c][1,4]benzodiazepin-10(11H)-ylcarbonyl]-3-chlorophenyl]-4-fluoro-2-chlorobenzamide] |  |  | 430 mOsm/kg | 19.5 ml/4 hrs |  |  |  | 85% | 180 min
8 | O=C(Nc1ccc(C(=O)N2Cc3cccn3Cc3ccccc32)c(Cl)c1)c1ccccc1C(F)(F)F [Example 528, N-[4-(5H-pyrrolo[2,1-c][1,4]benzodiazepin-10(11H)-ylcarbonyl]-3-chlorophenyl]-2-(trifluoromethyl)benzamide] |  |  | 647 mOsm/kg | 11.3 ml/4 hrs |  |  |  | 66% | 300 min
9 | Cc1ccccc1C(=O)Nc1ccc(C(=O)N2Cc3cccn3Cc3ccccc32)cc1Cl [Example 530, N-[4-(5H-Pyrrolo[2,1-c][1,4]benzodiazepin-10(11H)-ylcarbonyl)-2-chlorophenyl]-2-methylbenzamide] |  |  | 914 mOsm/kg | 6 ml/4 hrs |  |  | 3.7 nM | 89% | 120 min
